Data: publication PMC10298982, “Stability Characterization of the Novel Anti-Cancer HM-10/10 HDL-Mimetic Peptide” (International Journal of Molecular Sciences, 2023)
Read-outs that look alike come from different tables or passages of the source. Ends that are not written are not given here.

Columns and labels:
[1] = Stability in simulated gastric fluid (SGF); type: in vitro ADME; details: SGF pH 1.3
Experimental: When developing any potentially oral-route pharmaceutical agent, the denaturing and pepsin-rich environment of the stomach must be considered. The stability of HM-10/10 was tested in simulated gastric fluid (SGF) and simulated intestinal fluid (SIF) over 120 min. […] Samples were tested at 2 μM.
For the HM-10/10 stability assay in simulated gastric and intestinal fluids, propantheline was used to confirm retention time and carbutamide was used as the internal standard for calculations.

[2] = Metabolic stability in cryopreserved Sprague-Dawley rat hepatocytes; type: in vitro ADME; details: Sprague-Dawley rat hepatocytes 0.5 million cells/mL; for CLint scaled: rat, hepatocytes, 2 μM
[3] = Protein binding in human plasma (ultracentrifugation); type: in vitro ADME; details: pH 7.4, Human plasma (K2EDTA)
CYP1A2 = CYP1A2 induction (enzyme activity) in single-donor human hepatocytes; type: in vitro ADME; details: for Fold Increase (Enzyme Activity) Mean: mean of three lots
Experimental: The transport medium was replaced with 200 μL of warm (37 °C) incubation medium (InVitroGRO HI, BioIVT Catalog No. Z99009) and the plate was placed in a humidified 5% carbon dioxide incubator at 37 °C for 24 h.
In addition, test article vehicle (PBS) was added to warm (37°C) InVitroGRO HI Medium in a 5:95 (v:v) ratio. […] The plates were removed from the incubator and the hepatocytes were prepared for the induction assay by replacing the cell culture medium with medium containing either the test article, a control inducer, or vehicle control (200 µL per well). The hepatocyte plates were returned to the cell culture incubator and incubated for 24 h.
On Day 3, induction was repeated following the same steps as described above for the previous day, and plates were returned to the cell culture incubator for an additional 24 h.
After aliquots were taken to measure test article stability, all the remaining medium from each well in the hepatocyte plate was removed, all wells were washed once using 200 μL of blank assay buffer, and then 100 μL of the 1000-fold diluted substrate solutions were added to the appropriate wells. The assay plate was returned to the humidified 5% carbon dioxide incubator at 37 °C for 1 h incubation.
At the end of the incubation time, 100 μL of mRNA lysis buffer was added to each well to stop the reaction. Fifty microliters of this reaction mixture were transferred into a new plate and quenched with 200 μL of ice-cold acetonitrile containing a CYP-specific stable labeled internal standard (250 ng/mL acetaminophen-d4, 250 ng/mL hydroxybupropion-d6, or 250 ng/mL hydroxytestosterone-d3). After removal of the aliquots from the plate for enzyme activity determination, the assay plates were sealed and stored in a −70 °C freezer until use for RT-PCR, mRNA analysis.
For the induction assay samples, an aliquot (50 µL) of the supernatant was transferred to a new plate and diluted with 100 µL Milli-Q water. For the test article stability samples, an aliquot (50 µL) of the supernatant was transferred to a new plate and diluted with 60 µL 0.1% formic acid in Milli-Q water. These samples for the enzyme activity assay and article stability test were refrigerated for storage until analysis. […]
HM1010: Induction Potential of Cytochrome P450 Enzymes
(CYP1A2, CYP2B6 and CYP3A4) Using Human Cryopreserved Hepatocytes
Testing Facility Study No.
The purpose of this in-vitro study was to determine the induction potential of HM1010 on human
cytochrome P450 (CYP) isoenzyme (1A2, 2B6 and 3A4) activity. The study design is
Matrix: Inducible cryopreserved human hepatocytes three single-donor lots
Assay Buffer: InVitroGRO KHB
Substrates: Phenacetin (1A2), Bu propion (2B6), and Testosterone (3A4)
Assay conditions: 48 hours at 37°C in humidified 5% carbon dioxide incubator
Analysis: LC-MS/MS (enzyme activity) and mRNA analysis

CYP3A4 = CYP3A4 induction (enzyme activity) in single-donor human hepatocytes; type: in vitro ADME; details: for Fold Increase (Enzyme Activity) Mean: mean of three lots
[4] = Test article stability over 24 h incubation with hepatocytes in the induction assay; type: in vitro ADME, human; details: average of three lots, both days
Experimental: For each 24 h incubation, 50 µL of each medium containing the test article (HM-10/10) were collected at the start (T0) and end of 24 h incubation (T24) and quenched with 300 µL of 1% perchloric acid in methanol and 50 µL of internal standard cocktail (carbutamide, chrysin, and glyburide each at 1.71 µg/mL water). These samples were analyzed to test the stability of HM-10/10 after 24 h incubation with the hepatocytes. The quenched sample plates were stored covered in a −20 °C freezer.

CYP2B6 = target: T1, CYP2B6 (Homo sapiens, UniProt P20813); details: microsomes
T1 sequence (P20813 1-491): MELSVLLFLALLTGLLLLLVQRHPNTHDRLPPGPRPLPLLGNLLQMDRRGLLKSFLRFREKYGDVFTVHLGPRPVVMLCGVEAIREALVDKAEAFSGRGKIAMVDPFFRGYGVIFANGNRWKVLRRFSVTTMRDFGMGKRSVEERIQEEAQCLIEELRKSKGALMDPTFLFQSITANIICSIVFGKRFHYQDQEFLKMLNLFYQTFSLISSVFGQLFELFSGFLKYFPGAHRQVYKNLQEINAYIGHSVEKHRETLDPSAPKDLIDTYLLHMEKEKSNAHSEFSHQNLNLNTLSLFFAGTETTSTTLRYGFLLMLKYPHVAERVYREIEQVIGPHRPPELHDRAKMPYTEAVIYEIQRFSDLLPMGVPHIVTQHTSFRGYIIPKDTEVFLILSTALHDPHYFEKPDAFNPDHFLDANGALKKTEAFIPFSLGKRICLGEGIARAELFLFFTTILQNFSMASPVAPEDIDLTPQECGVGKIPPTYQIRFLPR

in vitro = details: human, plasma, pH 7.4

- half-life at 2 µM [1]: 6.2 h
- half-life at 2 µM ([2]; cryopreserved hepatocytes): 5.81 min
- remaining at 0.5 h, 2 µM ([2]; cryopreserved hepatocytes, read-out: % Remaining at 30 min): 1%
- CLint scaled ([2]; read-out: CLint (L/hr/kg) (converted)): 75.4 L/h/kg
- CLint scaled ([2]; read-out: CLint (mL/min/kg)): 75.6 L/h/kg
- remaining at 2.5 h, 2 µM ([3]; 37 °C, read-out: % Stability in Matrix (2.5 h)): 88.5%
- fraction unbound at 2.5 h, 2 µM ([3]; 2.5 h at 37 °C, read-out: Fu (Unbound Fraction) Mean ± SD): 0.203 ± 0.055
- Fold Increase (Enzyme Activity) Lot HH1086 (CYP1A2; 2 µM): 0.682 fold
- Fold Increase (Enzyme Activity) Lot HH1142 (CYP1A2; 2 µM): 1.33 fold
- Fold Increase (Enzyme Activity) Lot HH1144 (CYP1A2; 2 µM): 1.73 fold
- Fold Increase (Enzyme Activity) Mean (CYP1A2; 2 µM): 1.25 fold
- Fold Increase (Enzyme Activity) Lot HH1086 (CYP1A2; 10 µM): 1.88 fold
- Fold Increase (Enzyme Activity) Lot HH1142 (CYP1A2; 10 µM): 5.19 fold
- Fold Increase (Enzyme Activity) Lot HH1144 (CYP1A2; 10 µM): 3.32 fold
- Fold Increase (Enzyme Activity) Mean (CYP1A2; 10 µM): 3.46 fold
- Fold Increase (Enzyme Activity) Lot HH1086 (CYP1A2; 25 µM): 2.46 fold
- Fold Increase (Enzyme Activity) Lot HH1142 (CYP1A2; 25 µM): 5.98 fold
- Fold Increase (Enzyme Activity) Lot HH1144 (CYP1A2; 25 µM): 3.65 fold
- Fold Increase (Enzyme Activity) Mean (CYP1A2; 25 µM): 4.03 fold
- Fold Increase (Enzyme Activity) Lot HH1086 (CYP3A4; 2 µM): 2.06 fold
- Fold Increase (Enzyme Activity) Lot HH1142 (CYP3A4; 2 µM): 1.59 fold
- Fold Increase (Enzyme Activity) Lot HH1144 (CYP3A4; 2 µM): 1.35 fold
- Fold Increase (Enzyme Activity) Mean (CYP3A4; 2 µM): 1.67 fold
- Fold Increase (Enzyme Activity) Lot HH1086 (CYP3A4; 10 µM): 2.20 fold
- Fold Increase (Enzyme Activity) Lot HH1142 (CYP3A4; 10 µM): 2.12 fold
- Fold Increase (Enzyme Activity) Lot HH1144 (CYP3A4; 10 µM): 1.83 fold
- Fold Increase (Enzyme Activity) Mean (CYP3A4; 10 µM): 2.05 fold
- Fold Increase (Enzyme Activity) Lot HH1086 (CYP3A4; 25 µM): 2.07 fold
- Fold Increase (Enzyme Activity) Lot HH1142 (CYP3A4; 25 µM): 2.19 fold
- Fold Increase (Enzyme Activity) Lot HH1144 (CYP3A4; 25 µM): 2.15 fold
- Fold Increase (Enzyme Activity) Mean (CYP3A4; 25 µM): 2.14 fold
- Average % Stability ([4]; 10 µM): 0.7%
- remaining at 24 h, 2 µM ([4]; human, plated human hepatocytes, three single-donor lots, 2 µM): 0.6%
- remaining at 24 h, 25 µM ([4]; human, plated human hepatocytes, three single-donor lots, 25 µM): 0.3%
- % Inhibition at 50 µM No PI + NADPH (CYP2B6): 17.3%
- % Inhibition at 50 µM No PI − NADPH (CYP2B6): 25.2%
- % Inhibition at 50 µM PI + NADPH (CYP2B6): 28.4%
- % Inhibition at 50 µM PI − NADPH (CYP2B6): 42.2%
- half-life at 2 µM (in vitro): 2.73 h
- remaining at 2 h, 2 µM (in vitro): 64.5%
Sequence: LRKLRKRLLRLVGRQLEEFL [HM-10/10, LRKLRKRLLRLVGRQLEEFL]
